{
  "source": "patent US7790716B2",
  "about": "“Fab I inhibitors” (Affinium Pharmaceuticals, Inc., priority 1999, dated 2010)",
  "molecular_target": "T1, FabK (Streptococcus pneumoniae, UniProt Q9FBC5)",
  "T1 sequence (Q9FBC5 1-324)": "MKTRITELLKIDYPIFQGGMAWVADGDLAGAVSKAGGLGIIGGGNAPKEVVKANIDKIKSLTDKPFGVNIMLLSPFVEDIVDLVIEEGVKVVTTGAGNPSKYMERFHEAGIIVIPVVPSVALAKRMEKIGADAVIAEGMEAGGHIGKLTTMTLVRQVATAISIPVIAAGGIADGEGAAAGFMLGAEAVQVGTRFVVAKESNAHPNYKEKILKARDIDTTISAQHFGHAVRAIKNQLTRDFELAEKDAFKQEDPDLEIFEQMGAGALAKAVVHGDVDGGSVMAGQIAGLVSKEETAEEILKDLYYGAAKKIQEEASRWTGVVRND",
  "assay": "FabK Enzyme Inhibition Assay",
  "type": "biochemical",
  "description": "FabK catalyses the reduction of enoyl-ACPs with the concomitant oxidation of NADH. The reduction of crotonoyl-ACP to butyryl-ACP can be monitored by following the change in absorbance at 340 nm as NADH is oxidized.\nAssays were carried out in Costar 3696 half-area plates in a final assay volume of 150 uL on a Spectramax platereader. The substrates (NADH and crotonoyl-ACP) were incubated with FabK enzyme in 100 mM N-[2-acetamido]-2 iminodiacetic acid (ADA), pH 6.5, 100 mM NH4Cl, 4% glycerol at 30° C. and the reaction was monitored at 340 nm.\nUsing the above assay, compounds were tested for inhibition of FabK. 30 uL of inhibitor was added to a well of the plate. 30 uL of a 250 uM stock of NADH and 60 uL of a 67.5 uM stock of crotonoyl ACP were then added to the well. The plate was incubated at 30° C. for 5 min. The reaction was initiated by adding 30 uL of a 6.25 nM stock of enzyme to the well (also pre-incubated at 30° C.). The reaction was then monitored at A340 nm for 30 min at 30° C. Positive controls were reactions without compound. Negative controls were reactions without enzyme and without compound. Final concentrations in the assay mixture were 25 uM crotonoyl-ACP, 50 uM NADH, and 1.25 nM enzyme.\nIC50s were determined for compounds by carrying out the assay at 8 different concentrations of compound (100 uM-0.75 uM) in duplicate. The IC50 was calculated using Grafit software (v 4.09). […]",
  "data": [
    {"molecule": "CN(Cc1cn(C)c2ccccc12)C(=O)/C=C/c1cnc2c(c1)CCC(=O)N2", "note": "[Example 62, (E)-N-methyl-N-(1-methyl-1H-indol-3-ylmethyl)-3-(7-oxo-5,6,7,8-tetrahydro-1,8-naphthyridin-3-yl)acrylamide]", "values": [
      {"measurement": "Fab K inhibition (result in words)", "value": "dual Fab I/Fab K inhibitors"}
    ]}
  ]
}
